In US20050054587A1, “Novel therapeutic indication of azithromycin for treatment of non-infective inflamatory diseases” (priority 2001, published 2005):

How the values were obtained:
Type in all cases: in vivo, human
GRO-α = assay: Serum GRO-α concentration, ELISA; conditions: healthy volunteers, azithromycin 3×500 mg, baseline 124.1 ± 33.02
Protocol: (§1) A trial on healthy volunteers was conducted and the influence of azithromycin given in a dosage of 3×500 mg on selected inflammation-relevant parameters was followed up.
(§2) Each subject received two standard 250 mg capsules of azithromycin (Sumamed®, PLIVA Zagreb) on three consecutive days. Immediately before the treatment and 2 h and 30 min, 24 h and 28 days after the third and last dose of azithromycin blood was collected from the cubital vein into EDTA-containing tubes. Aliquots were taken for cell counting, smear preparation, polymorphonuclear cell and serum isolation.
(§3) Cytokine and chemokine concentrations were determined using ELISA kits. […] Rapid and pronounced decreases in the plasma concentrations of the neutrophil-stimulating chemokine, IL-8, and GR0-α were observed 2 h and 30 min and 24 h after the last dose of azithromycin (Table 1. The concentration of IL-8 returned essentially to baseline after 28 days, while that of GRO-[…] was decreased at this time.

myeloperoxidase (MPO) [1] = assay: Myeloperoxidase cytochemical score in blood smear neutrophils, healthy volunteer trial; conditions: healthy volunteers, azithromycin 3×500 mg, baseline 337 ± 29, score 0-400
Protocol: as §1, §2
(§4) The activity of MPO was assessed from the intensity of staining of neutrophils in blood smears and in cell lysates by ELISA. After fixation in ethanol-formaldehyde, smears were incubated in a substrate solution containing hydrogen peroxide and benzidine (SIGMA). After incubation, smears were counterstained with Giemsa solution. MPO value positivity_of 100 granulocytes was evaluated and scored from 0 to 4+ on the basis of the intensity of the precipitated dye in cytoplasm. Therefore, the value of the score could be from 0 to 400. Normal values of score range (290-390) were taken from this study before azithromycin administration. MPO activity was also evaluated on the digital image of smear taken with a digital camera under the high magnification (×1000) of light microscope. MPO activities in blood smear neutrophils decreased from 2 h and 30 min to 24 h after the last azithromycin dose and returned to baseline after 28 days (Table 1). The change in neutrophil enzyme protein followed the same pattern as that in intracellular enzyme activity, decreasing from 2 h and 30 min to 24 h after the last dose of azithromycin and returning to baseline after 28 days. Both methodological approaches of MPO determination confirmed each other. Degranulation presented with lower MPO neutrophil density determined_with cytochemistry was associated with lower MPO ELISA concentrations in neutrophil lysates.

IL-8 = assay: Serum IL-8 concentration, ELISA; conditions: healthy volunteers, azithromycin 3×500 mg, baseline 29.47 ± 15.44
Protocol: as §1, §2, §3

neutrophils = assay: fMLP-stimulated neutrophil oxidative burst, cytochrome c assay; conditions: healthy volunteers, azithromycin 3×500 mg, baseline 0.020 ± 0,014, absorbances 550 nm and 540 nm
Protocol: as §1, §2
Neutrophils were incubated with cytochrome c and stimulated with fMLP (Cohen and Chovaniec, 1978, J. Clin. Invest. 61: 1081-1087). Absorbances at 550 nm and 540 nm were recorded and the results were expressed as delta A.

myeloperoxidase (MPO) [2] = assay: MPO enzyme protein by ELISA in neutrophil lysates; conditions: healthy volunteers, azithromycin 3×500 mg, baseline 54.22 ± 12.61
Protocol: as §1, §2
as §4, with “Both methodological approaches of MPO determination confirmed each other.” left out
Proteins in PMN samples were determined according to the method of Bradford (Anal. Biochem. (1976) 72: 248-254) using bovine serum albumin as a standard.

IL-1 = assay: Serum IL-1 concentration, ELISA; conditions: healthy volunteers, azithromycin 3×500 mg, baseline 0.291 ± 0.11
Protocol: as §1, §2, §3

[3] = system: glutathione peroxidase (GSHPx); assay: Glutathione peroxidase activity in PMN lysates (RANSEL kit); conditions: healthy volunteers, azithromycin 3×500 mg, baseline 5.3 ± 2.0
Protocol: as §1, §2
Cellular glutathione peroxidase (GSHPx) is a tetrameric protein in which each of the four identical subunits contains one atom of selenium (Se) in the form of selenocysteine at the active site (Misso et al., J. Leukoc. Biol. (1998), 63: 124-130). GSHPx plays a role in H202 detoxification and converts lipid hydroperoxides to nontoxic alcohols (Akkus et al., Clin. Chim. Acta (1996), 244: 221-227); Urban et al., Biomed & Pharmacother. (1997), 51: 388-390). In this study, in healthy volunteers treated with azithromycin alterations in the PMN intracellular GSHPx activity were determined using the commercially available kit RANSEL (Randox Laboratories). GSHPx catalyses the oxidation of glutathione by cumene hydroperoxide. In the presence of glutathione reductase and NADPH the oxidised glutathione is immediately converted to the reduced form with a concomitant oxidation of NADPH to NADP^+. The decrease in absorbance at 340 nm is measured.

IL-6 = assay: Serum IL-6 concentration, ELISA; conditions: healthy volunteers, azithromycin 3×500 mg, baseline 3.4 ± 1.05
Protocol: as §1, §2, §3

[4] = system: N-acetyl-β-D-glucosaminidase (NAGA); assay: NAGA activity in serum, fluorimetric; conditions: healthy volunteers; for NAGA (serum): azithromycin 3×500 mg, baseline 9.16 ± 1.6
Protocol: as §1, §2
Glycosidases are enzymes that catalyse hydrolysis of glycosidic bonds of oligosacharides and other glycosides. They are specific to the glycosidic part of substrate molecule. N-acetyl-β-D-glucosaminidase (NAGA) and β-glucuronidase are such enzymes. They are lysosomal enzymes, both located in azurophilic (primary; peroxidase-positive) granules of neutrophils. Since degranulation of neutrophils is present during inflammation, many authors choose these enzymes as markers of degranulation and for estimation of neutrophil reactivity. The catalytic concentration of both enzymes in serum and in neutrophil lysates was determined using the fluorimetric method described by O'Brien et al. (New Engl. J. Med. (1970) 283: 15-20) for NAGA and Glaser & Sly (J. Lab. Clin. Med. (1973) 82: 969) for β-glucuronidase.

`CC[C@H]1OC(=O)[C@H](C)[C@@H](O[C@H]2C[C@@](C)(OC)[C@@H](O)[C@H](C)O2)[C@H](C)[C@@H](O[C@@H]2O[C@H](C)C[C@H](N(C)C)[C@H]2O)[C@](C)(O)C[C@@H](C)CN(C)[C@H](C)[C@@H](O)[C@]1(C)O` [azithromycin, 9-deoxo-9-dihydro-9a-methyl-9a-aza-9a-homoerythromycin A] was tested, and the “GRO-α (serum)” value (GRO-α; 2 h and 30 min after last dose) was 109.6 ± 30.35 pg/mL, the “GRO-α (serum)” value (GRO-α; 24 hours after last dose) was 107.9 ± 27.83 pg/mL and the “GRO-α (serum)” value (GRO-α; 28 days after last dose) was 90.4 ± 22.32 pg/mL. For the same compound, the “myeloperoxidase (score)” value (myeloperoxidase (MPO) [1]; 2 h and 30 min after last dose) was 326 ± 26, the “myeloperoxidase (score)” value (myeloperoxidase (MPO) [1]; 24 hours after last dose) was 315 ± 22 and the “myeloperoxidase (score)” value (myeloperoxidase (MPO) [1]; 28 days after last dose) was 347 ± 18. For the same compound, the “IL-8 (serum)” value (IL-8; 2 h and 30 min after last dose) was 10.61 ± 3.81 pg/mL, the “IL-8 (serum)” value (IL-8; 24 hours after last dose) was 14.60 ± 10.75 pg/mL and the “IL-8 (serum)” value (IL-8; 28 days after last dose) was 23.03 ± 19.72 pg/mL. The “OXIDATIVE BURST (PMN) fMLP-cytochrom c” value (neutrophils; 2 h and 30 min after last dose) was 0,007 ± 0.015 ΔA, the “OXIDATIVE BURST (PMN) fMLP-cytochrom c” value (neutrophils; 24 hours after last dose) was −0,018 ± 0.010 ΔA and the “OXIDATIVE BURST (PMN) fMLP-cytochrom c” value (neutrophils; 28 days after last dose) was −0,0011 ± 0,0010 ΔA. The “myeloperoxidase (PMN)” value (myeloperoxidase (MPO) [2]; 2 h and 30 min after last dose) was 70.85 ± 19.91 μg/mg protein, the “myeloperoxidase (PMN)” value (myeloperoxidase (MPO) [2]; 24 hours after last dose) was 26.74 ± 2.51 μg/mg protein and the “myeloperoxidase (PMN)” value (myeloperoxidase (MPO) [2]; 28 days after last dose) was 70.01 ± 17.62 μg/mg protein. For the same compound, the “IL-1 (serum)” value (IL-1; 2 h and 30 min after last dose) was 0.533 ± 0.15 pg/mL, the “IL-1 (serum)” value (IL-1; 24 hours after last dose) was 1.07 ± 0.19 pg/mL and the “IL-1 (serum)” value (IL-1; 28 days after last dose) was 0.29 ± 0.20 pg/mL. The “GLUTATHION PEROXIDASE (PMN)” value ([3]; 2 h and 30 min after last dose) was 5.3 ± 2.9 mU/10^6PMN, the “GLUTATHION PEROXIDASE (PMN)” value ([3]; 24 hours after last dose) was 1.6 ± 1.3 mU/10^6PMN and the “GLUTATHION PEROXIDASE (PMN)” value ([3]; 28 days after last dose) was 8.0 ± 5.2 mU/10^6PMN. For the same compound, the “IL-6 (serum)” value (IL-6; 2 h and 30 min after last dose) was 2.7 ± 1.49 pg/mL, the “IL-6 (serum)” value (IL-6; 24 hours after last dose) was 2.5 ± 1.48 pg/mL and the “IL-6 (serum)” value (IL-6; 28 days after last dose) was 1.15 ± 0.61 pg/mL. The “increase of activity of NAGA in serum vs initial values” ([4]; 3×500 mg, 2 h and 30 min after the last dose) was “about 30%”, the “activity of NAGA in serum higher than the initial values” ([4]; 3×500 mg, 24 hours after the last dose) was “approximately 50%” and the “serum NAGA values higher than initial values” ([4]; 3×500 mg, 28 days after the last dose) was 70%. The “NAGA (serum)” value ([4]; 2 h and 30 min after last dose) was 11.52 ± 2.2 µmol/L/min, the “NAGA (serum)” value ([4]; 24 hours after last dose) was 13.7 ± 1.5 µmol/L/min and the “NAGA (serum)” value ([4]; 28 days after last dose) was 14.87 ± 1.9 µmol/L/min.
